Read-outs that look alike come from different tables or passages of the source.
Molecular target: T1, chemically synthesized HIV protease (Human immunodeficiency virus type 1 group M subtype B, UniProt P12497, C555A/C583A)
T1 construct: The HIV protease was chemically synthesized; made in house; host or cells: chemical synthesis (no expression host)
Format: biochemical
From the text: The HPLC condition was as followes. Column: VYDAC 218 TP 54, C18 • Solvent A: 0.1% trifluoroacetic acid aqueous solution • Solvent B: acetonitrile • Gradient: B was increased in 1.0%/min from 100% of A,

[1] = inhibitor 5mM as headed in Tables 3-6
[2] = inhibitor 1mM as headed in Tables 3-6
[3] = inhibitor 5 µM final concentration (Tables 1-2)

Compound	Residual Activity (%) [1] [%]	further results
Benzyloxycarbonyl-Asn-(2S,3S)-AHPBA-Php-NH-tBu [Example 184]	16.8	–
PhCH2-O-CO-Asn-(2S,3S)-ASPBA-(L)-Tic-NH-tBu [Example 102]	89.2	–
Bis(4-chlorophenyl)methyloxyacetyl-Asn-(2S,3S)-AHPBA-Pro-NH-tBu [Example 94]	37.0	–
2-Quinolinecarbonyl-Asn-(2S,3S)-AHPBA-Dtc-NH-tBu [Example 118]	1.8	–
Furancarbonyl-Asn-(2S,3S)-AHPBA-Pro-Ile-Val-NH2 [Example 65]	–	Residual Activity (%) (inhibitor 1 mM (Tables 1-2)): 9.3%
Benzyloxycarbonyl-Asn-(2S,3S)-AHPBA-Cpp-NH-tBu [Example 185]	96.0	–
1-Naphthoxyacetyl-Msa-(2S,3S)-AHPBA-Thz-NH-chex-ol [Example 158]	–	Residual Activity (%) [2]: <10%
Benzyloxycarbonyl-Asn-(2S,3S)-AHPBA-Thz-NH-tBu [Example 82]	–	Residual Activity (%) [2]: 1.3%
Benzyloxycarbonyl-Asn-(2S,3S)-AHPBA-Ccp-NH-tBu [Example 187]	99.0	–
CC(C)(C)NC(=O)[C@@H]1CSCN1C(=O)[C@@H](O)[C@H](Cc1ccccc1)NC(=O)[C@H](CS(C)(=O)=O)NC(=O)COc1cccc(C(=O)N2CCOCC2)c1 [Example 168, m-(Morph-CO)-Ph-O-CH2-CO-Msa-(2S,3S)-AHPBA-Thz-NH-tBu]	44.5	–
1-Naphthoxyacetyl-Mta-(2S,3S)-AHPBA-Thz-NH-tBu [Example 162]	2.9	–
Benzyloxycarbonyl-Asn-(2S,3S)-AHPBA-Pro-NH-CH2-C(CH3)3 [Example 83]	–	Residual Activity (%) [2]: 12.4%
Benzyloxycarbonyl-Asn-(2S,3S)-AHPBA-Pro-NH-cyclopropyl [Example 88]	–	Residual Activity (%) [2]: <10%
m-(Piper-CO-)Ph-O-CH2-CO-Msa-(2S,3S)-AHPBA-Thz-NH-tBu [Example 167]	25.4	–
1-Naphthoxyacetyl-Msa-(2S,3S)-AHPBA-Oic-NH-tBu [Example 146]	97.5	–
CS(=O)(=O)C[C@H](NC(=O)COc1cccc2ccccc12)C(=O)N[C@@H](Cc1ccccc1)[C@H](O)C(=O)N1CSC[C@H]1C(=O)NCC(N)=O [Example 172, 1-Naphthoxyacetyl-Msa-(2S,3S)-AHPBA-Thz-Gly-NH2]	77.9	–
Benzyloxycarbonyl-Asn-(2S,3S)-AHPBA-(L)-Pip-NH-tBu [Example 78]	–	Residual Activity (%) [2]: 11.7%
1-Naphthoxyacetyl-Msa-(2S,3S)-AHPBA-Thz-Pip-O-CH3 [Example 159]	90.8	–
CS(=O)(=O)C[C@H](NC(=O)COc1cccc2ccccc12)C(=O)N[C@@H](Cc1ccccc1)[C@H](O)C(=O)N1CSC[C@H]1C(=O)N[C@H](C(N)=O)c1ccccc1 [Example 157, 1-Naphthoxyacetyl-Msa-(2S,3S)-AHPBA-Thz-Phg-NH2]	93.9	–
Benzyloxycarbonyl-Asn-(2S,3S)-AHPBA decahydroisoquinoline	8.6	–
PhCH2-O-CO-Asn-(2S,3S)-AHPBA-Pro-NH-CH2-C6H11 [Example 49]	–	Residual Activity (%) [3]: 51.9%
PhCH2-O-CO-Asn-(2S,3S)-AHPBA-(D)-Tic-NH-tBu [Example 103]	91.4	–
Thiophenecarbonyl-Asn-(2S,3S)-AHPBA-Pro-Ile-Val-NH2 [Example 67]	–	Residual Activity (%) (inhibitor 1 mM (Tables 1-2)): 4.9%
Benzyloxycarbonyl-Asn-(2S,3S)-AHPBA-Dtc-NH-tBu [Example 104]	3.8	–

Compound	Residual Activity (%) [1] [%]	further results
Benzyloxycarbonyl-Asn-(2S,3S)-AHPBA-Pro-NH-tAmyl [Example 87]	–	Residual Activity (%) [2]: 5.8%
1-Isoquinolinecarbonyl-Asn-(2S,3S)-AHPBA-Pro-NH-tBu.AcOH [Example 140]	72.8	–
Benzyloxycarbonyl-Asn-(2S,3S)-AHPBA-Dmp-NH2 [Example 188]	98.1	–
CC(CNC(=O)[C@@H]1CSCN1C(=O)[C@@H](O)[C@H](Cc1ccccc1)NC(=O)[C@H](CS(C)(=O)=O)NC(=O)COc1cccc2ccccc12)C(N)=O (stereo partly drawn) [Example 174, 1-Naphthoxyacetyl-Msa-(2S,3S)-AHPBA-Thz-BAIB-NH2]	46.6	–
CS(=O)(=O)C[C@H](NC(=O)COc1cccc2ccccc12)C(=O)N[C@@H](Cc1ccccc1)[C@H](O)C(=O)N1CSC[C@H]1C(=O)NCCCC(N)=O [Example 173, 1-Naphthoxyacetyl-Msa-(2S,3S)-AHPBA-Thz-GABA-NH2]	65.0	–
1-Naphthoxyacetyl-Asn-(2S,3S)-AHPBA-Thz-NH-cyclopentyl [Example 128]	10.5	–
Benzyloxycarbonyl-Asn-(2S,3S)-AHPBA-Tcp-NH-tBu [Example 186]	99.5	–
Benzyloxycarbonyl-Asn-(2S,3S)-AHPBA-Dtc-NH2 [Example 177]	74.2	–
Benzyloxycarbonyl-Val-(2R,3S)-AHPBA-Phe-Val-NH-CH2-CH(CH3)2 [Example HH]	–	Residual Activity (%) [3]: 83.4%
Benzyloxycarbonyl-Asn-(2S,3S)-AHPBA-Pro-NH-CH(C2H5)2 [Example 89]	–	Residual Activity (%) [2]: <10%
CC(CC(N)=O)NC(=O)[C@@H]1CSCN1C(=O)[C@@H](O)[C@H](Cc1ccccc1)NC(=O)[C@H](CS(C)(=O)=O)NC(=O)COc1cccc2ccccc12 (stereo partly drawn) [Example 175, 1-Naphthoxyacetyl-Msa-(2S,3S)-AHPBA-Thz-BANB-NH2]	33.0	–
3-Phenylpropionyl-Msa-(2S,3S)-AHPBA-Pro-Ile-Val-NH2 [Example 62]	–	Residual Activity (%) [3]: 3.2%
2-Quinolinecarbonyl-Asn-(2S,3S)-AHPBA-Pro-NH-tBu [Example 138]	27.3	–
Benzyloxycarbonyl-Asn-(2S,3S)-AHPBA-Pro-Aib-NH2 [Example 93]	–	Residual Activity (%) [2]: <10%
Benzyloxycarbonyl-Asn-(2S,3S)-AHPBA-Dmp-NH-tBu [Example 182]	26.8	–
Benzyloxycarbonyl-Asn-(2S,3S)-AHPBA-(D)-Pip-NH-tBu [Example 79]	–	Residual Activity (%) [2]: 84.0%
Benzyloxycarbonyl-Asn-(2S,3S)-AHPBA-Pro-NH-C(CH3)2-CH2-OH [Example 99]	62.2	–
Benzyloxycarbonyl-Asn-(2S,3S)-AHPBA-Hyp(Bzl)-NH-tBu [Example 95]	–	Residual Activity (%) [2]: 34.6%
Benzyloxycarbonyl-Asn-(2S,3S)-AHPBA-Pro-O-tBu [Example 86]	–	Residual Activity (%) [2]: 12.6%
m-Isopropyloxyphenoxyacetyl-Msa-(2S,3S)-AHPBA-Dtc-NH-tBu [Example 166]	2.0	–
Benzyloxycarbonyl-Asn-(2S,3S)-AHPBA-Pro-NH-sBu [Example 176]	82.6	–
Benzyloxycarbonyl-Asn-(2S,3S)-AHPBA-Pdp-NH-tBu [Example 164]	49.8	–
Benzyloxycarbonyl-Val-(2R,3S)-AHPBA-Phe-NH-CH2-CH(CH3)2 [Example JJ]	–	Residual Activity (%) [3]: 84.9%
Benzyloxycarbonyl-Asn-(2S,3S)-AHPBA-Inc-NH-tBu [Example 96]	–	Residual Activity (%) [2]: 95.2%
